Laboratory results published in patent US20100267753A1, “METHODS OF TREATING DISORDERS ASSOCIATED WITH PROTEIN KINASE CK2 ACTIVITY” (priority 2009, published 2010).
Several values for one entry are separate records, joined by “and”; a condition that tells them apart may be missing. Equal values may be shown once. Read-outs that look alike come from different tables or passages of the source.

Experiments:
[1] = test system: U937, latently infected with HIV-1 (U1 cells); assay: U1 latent infection assay, host cell cytotoxicity; type: cell-based; settings: U1 latent/induced, 72 hr; read-out: TC50 (the source's name)
[2] = test system: 91US005 (CCR5-tropic HIV-1 Subtype B virus); assay: PBMC assay, HIV-1 91US005; type: cell-based; settings: Virus 91US005, PBMCs
Description: (§1) Acute infection of HIV-1 isolates (CXCR4-tropic HIV-1 Subtype B and CCR5-tropic HIV-1 Subtype) using fresh human PBMCs from multiple donors (PMA and IL-2 stimulated). Antiviral activity determined as a reduction in reverse transcriptase after 7-day incubation.
(§2) TI=TC/IC; also referred to as Therapeutic Index values (TI) or Antiviral Index (AI)
(§3) Antiviral activity was determined as a reduction in reverse transcriptase after 7-day incubation. AZT, a nucleoside analog reverse transcriptase inhibitor, was used as the positive control for the assay.
(§4) 92HT599 is a CXCR4-tropic HIV-1 Subtype B virus. 91US005 is CCR5-tropic HIV-1 Subtype B virus.

[3] = test system: HIV-1; assay: U1 latent infection assay, antiviral (reverse transcriptase); type: cell-based; settings: U1 latent/induced
Description: Histocytic leukemia cell line U937, latently infected with HIV-1, are treated with TNFα to induce virus expression in the presence of test compound. Antiviral activity is determined as a reduction in reverse transcriptase after 72 hr incubation.
as §2
The histocytic leukemia cell line U937, latently infected with HIV-1, was treated with TNFα to induce virus expression in the presence of test compound. Antiviral activity was determined as a reduction in reverse transcriptase after 72 hr incubation. Temacrazine, an inhibitor of HIV transcription initiation, was used as the positive control for the assay.

[4] = test system: 92HT599 (CXCR4-tropic HIV-1 Subtype B virus); assay: PBMC assay, HIV-1 92HT599; type: cell-based; settings: Virus 92HT599, PBMCs
Description: as §1, §2, §3, §4

[5] = test system: fresh human PBMCs; assay: PBMC assay, host cell cytotoxicity; type: cell-based; settings: for CC50: PBMCs, read-out: TC50 (the source's name)
[6] = Pharmacokinetics in mouse (IV bolus or oral dose); type: in vivo; settings: mice; for Cmax: read-out: Cmax-obs; for half-life: read-out: t1/2 (converted)
Description: The pharmacokinetics properties of drugs were investigated in three species, following an intravenous (IV) bolus or oral (PO) dose of Compound K at the dosages indicated in the chart. Blood samples were collected at predetermined times and the plasma separated. Plasma was separated from the blood samples collected at 5, 15 and 30 minutes and 1, 2, 4, 8 and 24 hours post-dose.
Drug levels were quantified by the LC/MS/MS method described below. Noncompartmental pharmacokinetic analysis was applied for intravenous administration. […] The terminal t1/2 and C0 were calculated using the last three and the first three data points, respectively
Bioanalysis was performed using a Quattro Micro LC/MS/MS instrument in the MRM detection mode, with an internal standard (1S). Briefly, 15 μL plasma samples were prepared for analysis using protein precipitation with 120 μL of acetonitrile. The supernatants were transferred into a 96 well plate and subjected to LC-MS/MS analysis using a Phenomenex Polar-RP HPLC column. The mobile phases were 10 mM NH4HCO3 in water (Solution-A) and 10 mM NH4HCO3 in methanol (Solution-B). The column was initially equilibrated with 25% Solution-B and followed with 100% Solution B over 5 minutes. […] Quantitation of the analytes was performed in the batch mode with two bracketing calibration curves according to the bioanalytical sample list.

[7] = test system: formalin-induced persistent pain; assay: Formalin-induced persistent pain model (flinching); type: in vivo, ICR mice; settings: 3 mg/kg, subcutaneously injected, positive control
Description: See Hunskaar, et al., “The formalin test in mice: Dissociation between inflammatory and non-inflammatory pain,” Pain, vol. […] 89, 53-63 (2000). These tests were conducted with ICR mice, in accordance with guidelines established by the International Association for the Study of Pain. Compounds of the invention were used as solutions of about 3-20 mg/mL in aqueous solution at about pH 8. […] The test animals were monitored for at least 40 minutes, during which time the number of flinches occurring during each 5-minute period were observed and recorded. A cohort of 12 animals were used for each dose level of each compound tested.
The compounds were administered orally in a single dose, of 30, 100, and 200 mg/kg, one hour prior to injection of formalin Pain response was measured by flinching frequency.

[8] = test system: eight CCR5-tropic HIV-1 clinical isolates; assay: CCR5-tropic HIV-1 clinical isolates in fresh human PBMCs; type: cell-based; settings: FIG. 5, fresh human PBMCs
[9] = test system: CFA-induced thermal hyperalgesia; assay: CFA-induced thermal hyperalgesia model (Hargreaves); type: in vivo, ICR mice; settings: single intraperitoneal dose 50 mg/kg; 1, 2, and 4 hours after administration
Description: The observations of pain responses were done blindly.
[…] On day 4, test subjects received a single injection of CFA (20 microliters) subcutaneously in the plantar surface of the left rear paw. CFA was injected subcutaneously into the plantar surface of the left hind paw of each test subject, under isoflurane anesthesia. […] On day 5, thermal responses were measured prior to treatment with the compound and again 1, 2, and 4 hours after treatment with […]. Withdrawal latencies were measured in response to thermal stimulus by the Hargreaves method. Naproxen was used as a positive control.

[10] = U1 latent infection assay, host cell cytotoxicity; type: cell-based; settings: human, U1 latent/induced, read-out: TC50
[11] = PBMC assay, host cell cytotoxicity; type: cell-based, human; settings: human; PBMCs; read-out: TC50
[12] = TNFα, reverse transcriptase after 72 hr
[13] = Human immunodeficiency virus 1, PBMC, 168 h, 7-day incubation
[14] = Human immunodeficiency virus 1, PBMC
[15] = Human immunodeficiency virus 1, 72 h, 72 hr, positive control

Q: Which CC50 [1] does the source give for `C#Cc1cccc(Nc2nc3cc(C(=O)[O-])ccc3c3cncnc23)c1.[Na+]` [Compound 1 Na] here?
A: 17100 nM

Q: And the IC90 [2]?
A: 1410 nM

Q: And the “TI (TC50/IC50)” value [2]?
A: 35.8

Q: What about the IC50 ([2]; 7-day incubation) of the same compound?
A: 100 nM

Q: What about the “TI (TC50/IC50)” value [3] of the same compound?
A: 87.3

Q: And the IC90 ([3]; 72 hr)?
A: 9080 nM

Q: What about the IC50 [3, 12] of the same compound?
A: 200 nM

Q: What about the IC90 [4] of the same compound?
A: 2770 nM

Q: And the “TI (TC50/IC50)” value [4]?
A: 3.07

Q: What about the IC50 ([4]; 7-day incubation) of the same compound?
A: 1150 nM

Q: What about the CC50 [5] of the same compound?
A: 3530 nM

Q: Which results are given for `C#Cc1cccc(Nc2nc3cc(C(=O)O)ccc3c3cncnc23)c1` [Compound 1, 5-(3-ethynylphenylamino)pyrimido[4,5-c]quinoline-8-carboxylic acid]?
A: CLs ([6]; IV 5.4 mg/kg): 5.28 mL/min/kg; Cp0-exp ([6]; IV 5.4 mg/kg): 29442.03 ng/mL; Kel ([6]; IV 5.4 mg/kg): 0.0678 h⁻¹; F(0-24 h) ([6]; PO 10.8 mg/kg): 7.2%; F(0-Inf) ([6]; PO 10.8 mg/kg): 11.0%; Kel ([6]; PO 10.8 mg/kg): 0.0323 h⁻¹; AUC(0-t) ([6]; mouse, plasma, iv, 5.4 mg/kg, AUC(0-8 h), IV 5.4 mg/kg): 11200 ng·h/mL; AUC(0-t) ([6]; mouse, plasma, iv, 5.4 mg/kg, IV 5.4 mg/kg, read-out: AUC(0-24 h)): 15300 ng·h/mL; AUC(0-t) ([6]; mouse, plasma, po, 10.8 mg/kg, AUC(0-8 h), PO 10.8 mg/kg): 1050 ng·h/mL; AUC(0-t) ([6]; mouse, plasma, po, 10.8 mg/kg, PO 10.8 mg/kg, read-out: AUC(0-24 h)): 2210 ng·h/mL; AUC(0-inf) ([6]; mouse, plasma, IV 5.4 mg/kg): 17000 ng·h/mL; Cmax ([6]; mouse, plasma, IV 5.4 mg/kg): 21800 ng/mL; Vd ([6]; mouse, plasma, IV 5.4 mg/kg, read-out: Vd): 4.67 L/kg; half-life ([6]; mouse, plasma, IV 5.4 mg/kg): 10.2 h; AUC(0-inf) ([6]; mouse, plasma, PO 10.8 mg/kg): 3760 ng·h/mL; Tmax ([6]; mouse, plasma, PO 10.8 mg/kg): 0.25 h; Cmax ([6]; mouse, plasma, PO 10.8 mg/kg): 800 ng/mL; half-life ([6]; mouse, plasma, PO 10.8 mg/kg): 21.5 h

Q: Which “formalin-induced flinching, first phase” value [7] does the source give for `CN1CC[C@]23c4c5ccc(O)c4O[C@H]2[C@@H](O)C=C[C@H]3[C@H]1C5` [morphine, reference compound] here?
A: reduced formalin-induced flinching

Q: What about the “formalin-induced flinching, second phase” value [7] of the same compound?
A: reduced formalin-induced flinching

Q: Which “TI (TC50/IC50)” value [2] does the source give for `Cc1cn([C@H]2C[C@H](N=[N+]=[N-])[C@@H](CO)O2)c(=O)[nH]c1=O` [AZT, reference compound] here?
A: >611

Q: What about the IC50 ([2]; positive control) of the same compound?
A: 1.64 nM

Q: And the IC90 ([2]; positive control)?
A: 6.86 nM

Q: And the “TI (TC50/IC50)” value [4]?
A: >665

Q: What about the IC50 ([4]; positive control) of the same compound?
A: 1.5 nM

Q: And the IC90 ([4]; positive control)?
A: 7.58 nM

Q: And the CC50 ([5]; positive control)?
A: > 1000 nM

Q: What about the “HIV-1 93TH073 Clade E replication” value [8] of the same compound?
A: inhibition of HIV-1 93TH073 Clade E replication

Q: For `COc1ccc2cc([C@H](C)C(=O)O)ccc2c1` [naproxen, reference compound], which “effect on CFA-induced thermal hyperalgesia” value [9] is on record?
A: significantly reversed the CFA-induced thermal hyperalgesia

Q: For `O=C(O)c1ccc2c(c1)nc(Nc1cccc(C(F)(F)F)c1)c1nc(NC3CC3)ncc12` [Compound 2], which “cytotoxicity in PBMC's” value [5] is on record?
A: minimal cytotoxicity

Q: Which CC50 [1] does the source give for `O=C([O-])c1ccc2c(c1)nc(Nc1cccc(C(F)(F)F)c1)c1nc(NC3CC3)ncc12.[Na+]` [Compound 2 Na] here?
A: > 100000 nM

Q: What about the IC90 [2] of the same compound?
A: 3770 nM

Q: And the “TI (TC50/IC50)” value [2]?
A: 59.6

Q: What about the IC50 ([2]; 7-day incubation) of the same compound?
A: 200 nM

Q: And the “TI (TC50/IC50)” value [3]?
A: >30.9 and >30.7

Q: What about the IC90 ([3]; 72 hr) of the same compound?
A: > 100000 nM

Q: And the IC50 [3, 12]?
A: 3240 nM and 3260 nM

Q: What about the IC90 [4] of the same compound?
A: 20600 nM

Q: What about the “TI (TC50/IC50)” value [4] of the same compound?
A: 2.65

Q: What about the IC50 ([4]; 7-day incubation) of the same compound?
A: 4520 nM

Q: And the CC50 [5]?
A: 12000 nM

Q: Which CC50 at 72 h [10] does the source give for `O=C(O)c1ccc2c(c1)nc(Nc1cccc(Cl)c1)c1ccncc12` [Compound K Na] here?
A: 10600 nM

Q: What about the IC50 [2, 13] of the same compound?
A: 1070 nM

Q: And the IC90 [2, 14]?
A: 3050 nM

Q: And the “TI (TC50/IC50)” value [2]?
A: 7.13

Q: And the IC90 ([3]; Human immunodeficiency virus 1, 72 h, 72 hr)?
A: 18000 nM

Q: And the IC50 ([3]; Human immunodeficiency virus 1, 72 h, TNFα, reverse transcriptase after 72 hr)?
A: 700 nM

Q: And the “TI (TC50/IC50)” value [3]?
A: 15.2

Q: What about the IC50 [4, 13] of the same compound?
A: 3490 nM

Q: What about the IC90 [4, 14] of the same compound?
A: 8250 nM

Q: And the “TI (TC50/IC50)” value [4]?
A: 2.18

Q: And the CC50 at 7 days [11]?
A: 7610 nM

Q: With `O=c1c2ccccc2n2nnc3ccc(NCCCN4CCN(CCCNc5ccc6nnn7c8ccccc8c(=O)c5c67)CC4)c1c32` [Temacrazine, reference compound] as the compound, how does the CC50 at 72 h ([10]; positive control) read?
A: > 100 nM

Q: What about the IC50 [3, 15] of the same compound?
A: 3.56 nM

Q: And the IC90 [3, 15]?
A: 17.9 nM

Q: What about the “TI (TC50/IC50)” value [3] of the same compound?
A: >28.1 and >27.4

Q: What about the IC50 ([3]; 72 hr, positive control) of the same compound?
A: 3.64 nM

Q: And the IC90 ([3]; 72 hr, positive control)?
A: 16.9 nM
